The text below walks through data of patent publication US8026231B2, “Aminothiolester compounds, pharmaceutical and cosmetic compositions containing same and uses thereof” (CNRS, priority 2000, dated 2011).

For assay [1], the system named is BAF3 bcl2 cells. Description: Growth of BAF3 bcl2 cells (viable cell count, Trypan blue). Format: cell-based, murine. The following applies: 50% inhibition of cell growth. The protocol: (§1) The cells used correspond to two cell lines: metastatic cells of human prostate cancer (DU145) and murine lymphoid cells transfected with the human bcl2 gene (BAF3 bcl2).
The procedure used for the tests on BAF3 bcl2 cells is as follows: • 10^5 cells are incubated in the various wells of a microplate in 1 ml of culture medium. After incubation for 4 hours, the test compounds are added to the wells containing the BAF3 bcl2 cells.
For the BAF3 bcl2 cells, the growth is measured by counting the viable cells in the presence of 0.1% Trypan blue. The control consists of thioampal, disclosed in patent application WO 98/44919.
(§2) The IC50 concentration is the concentration corresponding to a 50% inhibition of cell growth.

Assay [2] has as its system DU145 cells. The assay can be described thus: Growth of DU145 cells (protein and DNA assay, 72 h). Format: cell-based, human. The protocol:
as §1
The procedure used for the tests on DU145 is as follows: • 10^5 cells are incubated in the various wells of a microplate in 1 ml of culture medium.
(§3) The compounds are added 4 hours after placing the cells in the wells.
After 72 hours, the cells are removed at different times. The DU145 cells are washed twice with PBS and recovered directly with 0.1M sodium chloride.
The effect on the growth of the DU145 cells is measured by protein assay according to the Lowry method (Lowry, O. H., Rosenbrough, N. J., Farr, A. L. and Randall, J. Biol. Chem. 193, 265-275, (1951)) and DNA assay by the Hoechst method (West, D. C., Sattar, A. and Kumar, S., Anal. Biochem. 147, 289-295, (1985)).
as §2

The test system of assay [3] is DU145 cells. Description: Combination of two compounds of the invention on the growth of DU145 cells. Format: cell-based, human. The settings on record: Homo sapiens, DU-145. How it is done:
(§4) 10^5 normal human prostate cells or 10^5 cancerous human prostate cells (DU145) are incubated in various wells of a microplate in 1 ml of culture medium.
as §3
(§5) After 72 hours, the cells are removed at different times. The DU145 cells or the normal cells are washed twice with PBS and recovered directly with 0.1M sodium chloride.
(§6) The effect on the growth of the DU145 cells or the normal cells is measured by protein assay according to the Lowry method (Lowry, O. H., Rosenbrough, N. J., Farr, A. L. and Randall, J. Biol. Chem. 193, 265-275, (1951)) and DNA assay by the Hoechst method (West, D. C., Sattar, A. and Kumar, S., Anal. Biochem. 147, 289-295, (1985)).

Assay [4] deals with normal human prostate cells. The assay can be described thus: Combination of two compounds of the invention on normal human prostate cells. The assay is classed as cell-based. The settings on record: Homo sapiens, Prostate cell. How it is done: as §4, §3, §5, §6
Assay [5] has as its system DU145 cells. The assay can be described thus: Combination of Example 1 and Metmetlico on the growth of DU145 cells. The assay is classed as cell-based, human. How it is done: The cells used correspond to metastatic cells of human prostate cancer DU145. 10^5 DU145 cells are incubated in the various wells of a microplate in 1 ml of culture medium. The test compounds are added 4 hours after placing the cells in the wells. After 72 hours, the cells are removed at different times. The cells are washed twice with PBS and recovered directly with 0.1M sodium chloride. The effect on the growth of DU145 cells is measured by protein assay according to the Lowry method (Lowry, O. H., Rosenbrough, […]. and Randall, J. Biol. Chem. 193, 265-275, (1951)) and DNA assay by the Hoechst method (West, […]. and Kumar, S., Anal. Biochem. 147, 289-295, (1985)). The test compounds are the compound of Example 1, metmetlico and a mixture thereof.

Assay [6] concerns R7 cells. The assay can be described thus: Growth of R7 cells which overexpress the MDR gene. The assay is classed as cell-based. The following applies: increasing concentrations, 72 h, FIGS. 7 and 8. How it is done:
(§7) 10^5 cells were incubated in the various wells of a microplate in 1 ml of culture medium. These are R7 cells, on the one hand, and K562 cells, on the other hand.
(§8) After incubating for 4 hours, the test compound (compound of Example 1 according to the invention, on the one hand, and daunorubicin, on the other hand) was added to the wells containing the cells.
(§9) After 72 hours, the cells were collected at different times.
(§10) The growth of the cells was measured by counting the viable cells in the presence of 0.1% Trypan blue.
(§11) FIGS. 7 and 8 respectively represent the percentage inhibition (I %) by daunorubicin and the compound of Example 1 on the growth of the R7 and K562 cells, obtained at increasing concentrations C. The results obtained with the K562 cells are symbolized by ♦ and those obtained with the R7 cells are symbolized by ▴.

The test system of assay [7] is K562 cells. The assay can be described thus: Growth of K562 cells (control, no MDR overexpression). The assay is classed as cell-based, human. The settings on record: increasing concentrations, 72 h, FIGS. 7 and 8. How it is done:
as §7, §8, §9, §10, §11

Setting [8] is: Homo sapiens, DU-145, 50% inhibition of cell growth.

A word on the IC50: it is the concentration at which inhibition is half-maximal. Lower therefore signals higher potency. The inhibition is how much of the control response was suppressed.

On to `CCCN(CCC)C(C)(C)C#CC(=O)SC` [Example 3, S-methyl 4-di-n-propylamino-4-methyl-2-pentynethioate], for which the IC50 in assay [1] (Mus musculus) was 2.7 µM; in assay [2] (setting [8]), 8 µM.

In the case of `CSC(=O)C#CC(C)(C)N1CCCC1` [Example 4, S-methyl 4-methyl-4-pyrrodin-1-yl-2-pentynethioate], the values for the IC50 in assay [1] and in assay [2] (50% inhibition of cell growth) were 2.7 µM and 7.2 µM, respectively.

In the case of `CSC(=O)C#CC(C)(C)N1CCOCC1` [Example 5, S-methyl 4-methyl-4-morpholin-4-yl-2-pentynethioate], the inhibition at 1 µM was 14.3% in assay [3] (1 μM) and 0% in assay [4] (1 μM). Besides, the values for the inhibition at 2 µM in assay [3] (2 μM) and in assay [4] (2 μM) were 25.2% and 1.3%, respectively. For the same compound, the figures for the IC50 in assay [1] (Mus musculus) and in assay [2] (setting [8]) were 12 µM and 8.8 µM, respectively.

Consider `CSCCC(=O)SCCC(CCCCC(=O)OCC[N+](C)(C)C)SC(=O)CCSC.[I-]` (stereo not drawn) [Metmetlico, 2′-(trimethylammonium)ethyl 6S,8S-bis(3-methyl-thiopropanoyl)octanoate iodide, reference compound], for which the “% Inhibition of growth of the DU145 cells” value in assay [5] (25 μM) and in assay [5] (50 μM) was 0% each time.

Turning to `COc1cccc2c1C(=O)c1c(O)c3c(c(O)c1C2=O)C[C@@](O)(C(C)=O)C[C@@H]3O[C@H]1C[C@H](N)[C@H](O)[C@H](C)O1` [daunorubicin, reference compound], the “Inhibition of the growth of the R7 cells” value in assay [6] is “no inhibitory effect on the growth of the R7 cells”. Besides, the “Inhibition of the growth of the K562 cells” value in assay [7] is reported as “inhibits the growth of the K562 cells”.
